One test concerns HT-29 cells. Briefly: HT-29 cell necrosis/necroptosis inhibition (TNF-α + SMAC mimetic + zVAD-FMK; CellTiter-Glo cell viability). Type of test: cell-based. To be noted: HT-29 cells, TNF-α 10 ng/ml + SMAC mimetic 6 μM + zVAD-FMK 10 μM, 20 hours; geometric mean, 10 points in duplicate; read-out: EC50 (Cell activity; Necrosis/Necroptosis Inhibitory Activity, Compounds 143-323). The gist of the method: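 HT-29 cells (~5,000/well) were switched to FBS-free McCOY's 5A holding TNF-α (10 ng/ml), SMAC mimetic (6 μM) and zVAD-FMK (10 μM), then dosed with a 10-point 1:3 series for 20 h at 37 °C. CellTiter-Glo luminescence gave viability; geometric mean EC50 from duplicates.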
A general note: In ATP-based viability assays light output follows the ATP content of the culture.
`Cc1nc(C)n(-c2nc(N3CCN(C(=O)N4N=CCC4c4ncc(C)s4)CC3)ncc2F)n1` (stereo not drawn) [Compound 231, (4-(4-(3,5-dimethyl-1H-1,2,4-triazol-1-yl)-5-fluoropyrimidin-2-yl)piperazin-1-yl)(5-(5-methylthiazol-2-yl)-4,5-dihydro-1H-pyrazol-1-yl)methanone]: the EC50 is 0.0001 to 0.1 µM.

Still in this test, the particulars now being: Homo sapiens, HT-29, 20 h, read-out: EC50 (Cell activity; Necrosis/Necroptosis Inhibitory Activity, Compounds 1-142).
With `CCOC(=O)c1n[nH]c(C)c1-c1nc(N2CCN(C(=O)N3N=CC[C@H]3c3cc(F)cc(C#N)c3)CC2)ncc1F` [Compound 73, ethyl (S)-4-(2-(4-(5-(3-cyano-5-fluorophenyl)-4,5-dihydro-1H-pyrazole-1-carbonyl)piperazin-1-yl)-5-fluoropyrimidin-4-yl)-5-methyl-1H-pyrazole-3-carboxylat], the concentration giving a half-maximal response (EC50) is 0.0001 to 0.1 µM.

The same test, now with this note: Homo sapiens, HT-29, 20 h, read-out: EC50 (Cell activity; Necrosis/Necroptosis Inhibitory Activity, Compounds 143-323).
With `Cc1ncc(C#N)n1-c1nc(N2CCN(C(=O)N3N=CC[C@H]3c3cc(F)cc(C#N)c3)CC2)ncc1F` [Compound 148, 1-(2-(4-((S)-5-(3-cyano-5-fluorophenyl)-4,5-dihydro-1H-pyrazole-1-carbonyl)piperazin-1-yl)-5-fluoropyrimidin-4-yl)-2-methyl-1H-imidazole-5-carbonitrile], the concentration giving a half-maximal response (EC50) was 0.0001 to 0.1 µM.

The test is the same for the next values; noted with them: Homo sapiens; HT-29 cells, TNF-α 10 ng/ml + SMAC mimetic 6 μM + zVAD-FMK 10 μM, 20 hours; geometric mean, 10 points in duplicate; read-out: EC50 (Cell activity; Necrosis/Necroptosis Inhibitory Activity, Compounds 1-142).
With `Cc1nc(C)c(-c2nc(N3CCN(C(=O)N4N=CC[C@H]4c4cc(F)cc(F)c4)CC3)ncc2F)s1` [Compound 55, (S)-(5-(3,5-difluorophenyl)-4,5-dihydro-1H-pyrazol-1-yl)(4-(4-(2,4-dimethylthiazol-5-yl)-5-fluoropyrimidin-2-yl)piperazin-1-yl)methanone], the EC50 lay in the range of 0.0001 to 0.1 µM.

Regarding `Cn1ncc(C#N)c1-c1nc(N2CCN(C(=O)N3N=CC[C@H]3c3cc(F)cc(C#N)c3)CC2)ncc1F` [Compound 67, (S)-5-(2-(4-(5-(3-cyano-5-fluorophenyl)-4,5-dihydro-1H-pyrazole-1-carbonyl)piperazin-1-yl)-5-fluoropyrimidin-4-yl)-1-methyl-1H-pyrazole-4-carbonitrile], the EC50 lay in the range of 0.0001 to 0.1 µM.

`Cn1ncc(Cl)c1-c1nc(N2CCN(C(=O)N3N=CC[C@H]3c3cc(F)cc(C#N)c3)CC2)ncc1F` [Compound 15, (5)-3-(1-(4-(4-(4-chloro-1-methyl-1H-pyrazol-5-yl)-5-fluoropyrimidin-2-yl)piperazine-1-carbonyl)-4,5-dihydro-1H-pyrazol-5-yl)-5-fluorobenzonitrile]: the EC50 was in the range of 0.0001 to 0.1 µM.

As for `Cc1noc(C)c1-c1nc(N2CCN(C(=O)N3N=CC[C@H]3c3cc(F)cc(F)c3)CC2)ncc1F` [Compound 108, (S)-(5-(3,5-difluorophenyl)-4,5-dihydro-1H-pyrazol-1-yl)(4-(4-(3,5-dimethylisoxazol-4-yl)-5-fluoropyrimidin-2-yl)piperazin-1-yl)methanone], the EC50 lay in the range of 0.0001 to 0.1 µM.

On to `Cn1ccc(-c2nc(N3CCN(C(=O)N4N=CC[C@H]4c4cc(F)cc(F)c4)CC3)ncc2F)n1` [Compound 27, (S)-(5-(3,5-difluorophenyl)-4,5-dihydro-1H-pyrazol-1-yl)(4-(5-fluoro-4-(1-methyl-1H-pyrazol-3-yl)pyrimidin-2-yl)piperazin-1-yl)methanone], for which the EC50 was 0.0001 to 0.1 µM.

Turning to `N#Cc1cc(F)cc([C@@H]2CC=NN2C(=O)N2CCN(c3nccc(-c4cc[nH]n4)n3)CC2)c1` [Compound 34, (5)-3-(1-(4-(4-(1H-pyrazol-3-yl)pyrimidin-2-yl)piperazine-1-carbonyl)-4,5-dihydro-1H-pyrazol-5-yl)-5-fluorobenzonitrile], the 50% effective concentration (EC50) lay within 0.0001 to 0.1 µM.

Regarding `COC(=O)c1c[nH]c(-c2nc(N3CCN(C(=O)N4N=CC[C@H]4c4cc(F)cc(F)c4)CC3)ncc2F)c1` [Compound 12, methyl (S)-5-(2-(4-(5-(3,5-difluorophenyl)-4,5-dihydro-1H-pyrazole-1-carbonyl)piperazin-1-yl)-5-fluoropyrimidin-4-yl)-1H-pyrrole-3-carboxylate], the EC50 lay within 0.0001 to 0.1 µM.

In the case of `Cc1n[nH]c(C)c1-c1nc(N2CCN(C(=O)N3N=CC[C@H]3c3cc(F)cc(C#N)c3)CC2)ncc1F` [Compound 94, (S)-3-(1-(4-(4-(3,5-dimethyl-1H-pyrazol-4-yl)-5-fluoropyrimidin-2-yl)piperazine-1-carbonyl)-4,5-dihydro-1H-pyrazol-5-yl)-5-fluorobenzonitrile], the EC50 is 0.0001 to 0.1 µM.

As to `N#Cc1cccc([C@@H]2CC=NN2C(=O)N2CCN(c3nccc(-c4cc[nH]n4)n3)CC2)c1` [Compound 37, (S)-3-(1-(4-(4-(1H-pyrazol-3-yl)pyrimidin-2-yl)piperazine-1-carbonyl)-4,5-dihydro-1H-pyrazol-5-yl)benzonitrile], the half-maximal effective concentration (EC50) lay within 0.0001 to 0.1 µM.

As to `N#Cc1cc(F)cc([C@@H]2CC=NN2C(=O)N2CCN(c3ncc(F)c(-c4ccc(O)nc4)n3)CC2)c1` [Compound 48, (S)-3-fluoro-5-(1-(4-(5-fluoro-4-(6-hydroxypyridin-3-yl)pyrimidin-2-yl)piperazine-1-carbonyl)-4,5-dihydro-1H-pyrazol-5-yl)benzonitrile], the EC50 lay in the range of 0.0001 to 0.1 µM.

For the compound `Cc1cc(C(N)=O)cn1-c1nc(N2CCN(C(=O)N3N=CC[C@H]3c3cc(F)cc(F)c3)CC2)ncc1F` [Compound 92, (S)-1-(2-(4-(5-(3,5-difluorophenyl)-4,5-dihydro-1H-pyrazole-1-carbonyl)piperazin-1-yl)-5-fluoropyrimidin-4-yl)-5-methyl-1H-pyrrole-3-carboxamide], the EC50 lay within 0.0001 to 0.1 µM.

Staying with this test, now noted: Homo sapiens; HT-29 cells, TNF-α 10 ng/ml + SMAC mimetic 6 μM + zVAD-FMK 10 μM, 20 hours; geometric mean, 10 points in duplicate; read-out: EC50 (Cell activity; Necrosis/Necroptosis Inhibitory Activity, Compounds 143-323).
For `Cc1c(N)nn(C)c1-c1ccnc(N2CCN(C(=O)N3N=CC[C@H]3c3cc(F)cc(F)c3)CC2)n1` [Compound 143, (S)-(4-(4-(3-amino-1,4-dimethyl-1H-pyrazol-5-yl)pyrimidinyl)piperazin-1-yl)(5-(3,5-difluorophenyl)-4,5-dihydro-1H-pyrazol-1-yl)methanone], the EC50 fell in the range of 0.0001 to 0.1 µM.

Take `Cc1nc(C)n(-c2nc(N3CCN(C(=O)N4N=CCC4c4cscn4)CC3)ncc2F)n1` (stereo not drawn) [Compound 212, (4-(4-(3,5-dimethyl-1H-1,2,4-triazol-1-yl)-5-fluoropyrimidin-2-yl)piperazin-1-yl)(5-(thiazol-4-yl)-4,5-dihydro-1H-pyrazol-1-yl)methanone]: the EC50 was 0.1 to 1 µM.

`Cc1cc(C(F)(F)F)nn1-c1nc(N2CCN(C(=O)N3N=CC[C@H]3c3cc(F)cc(F)c3)CC2)ncc1F` [Compound 196, (S)-(5-(3,5-difluorophenyl)-4,5-dihydro-1H-pyrazol-1-yl)(4-(5-fluoro-4-(5-methyl-3-(trifluoromethyl)-1H-pyrazol-1-yl)pyrimidin-2-yl)piperazin-1-yl)methanone]: the EC50 lay in the range of 0.0001 to 0.1 µM.

For the compound `Cc1ncc(C2CC=NN2C(=O)N2CCN(c3nc(-c4c(C)cnn4C)ncc3F)CC2)s1` (stereo not drawn) [Compound 162, (4-(2-(1,4-dimethyl-1H-pyrazol-5-yl)-5-fluoropyrimidin-4-yl)piperazin-1-yl)(5-(2-methylthiazol-5-yl)-4,5-dihydro-1H-pyrazol-1-yl)methanone], the EC50 fell in the range of 0.0001 to 0.1 µM.

With `Cc1nn(-c2nc(N3CCN(C(=O)N4N=CC[C@H]4c4cc(F)cc(C#N)c4)CC3)ncc2F)c(C)c1[N+](=O)[O-]` [Compound 191, (S)-3-(1-(4-(4-(3,5-dimethyl-4-nitro-1H-pyrazol-1-yl)-5-fluoropyrimidin-2-yl)piperazine-1-carbonyl)-4,5-dihydro-1H-pyrazol-5-yl)-5-fluorobenzonitrile], the EC50 lay within 0.0001 to 0.1 µM.

With `Cc1ncn(-c2nc(N3CCN(C(=O)N4N=CC[C@H]4c4cc(F)cc(F)c4)CC3)ncc2F)n1` [Compound 235, (S)-(5-(3,5-difluorophenyl)-4,5-dihydro-1H-pyrazol-1-yl)(4-(5-fluoro-4-(3-methyl1H-1,2,4-triazol-1-yl)pyrimidin-2-yl)piperazin-1-yl)methanone], the EC50 is 0.0001 to 0.1 µM.

Consider `Cc1cnn(C)c1-c1ncc(F)c(N2CCN(C(=O)N3N=CCC3c3ncccc3Cl)CC2)n1` (stereo not drawn) [Compound 261, (5-(3-chloropyridin-2-yl)-4,5-dihydro-1H-pyrazol-1-yl)(4-(2-(1,4-dimethyl-1H-pyrazol-5-yl)-5-fluoropyrimidin-4-yl)piperazin-1-yl)methanone], for which the EC50 was 0.0001 to 0.1 µM.

Take `Cc1nn(-c2ccnc(N3CCN(C(=O)N4N=CC[C@H]4c4cc(F)cc(C#N)c4)CC3)n2)c(C)c1S(C)(=O)=O` [Compound 206, (S)-3-(1-(4-(4-(3,5-dimethyl-4-(methylsulfonyl)-1H-pyrazol-1-yl)pyrimidin-2-yl)piperazine-1-carbonyl)-4,5-dihydro-1H-pyrazol-5-yl)-5-fluorobenzonitrile]: the EC50 was 0.0001 to 0.1 µM.

For the compound `Cc1cnn(C)c1-c1nc(N2CCN(C(=O)N3N=CC[C@H]3c3cc(F)cc(C#N)c3)CC2)sc1CO` [Compound 266, (S)-3-(1-(4-(4-(1,4-dimethyl-1H-pyrazol-5-yl)-5-(hydroxymethyl)thiazol-2-yl)piperazine-1-carbonyl)-4,5-dihydro-1H-pyrazol-5-yl)-5-fluorobenzonitrile], the half-maximal effective concentration (EC50) lay within 1 to 10 µM.

As to `Cc1nn(-c2ccnc(N3CCN(C(=O)N4N=CC[C@H]4c4cc(F)cc(C#N)c4)CC3)n2)c(C)c1C(N)=O` [Compound 276, (S)-1-(2-(4-(5-(3-cyano-5-fluorophenyl)-4,5-dihydro-1H-pyrazole-1-carbonyl)piperazin-1-yl)pyrimidin-4-yl)-3,5-dimethyl-1H-pyrazole-4-carboxamide], the EC50 lay within 0.0001 to 0.1 µM.

In general, EC50 refers to the concentration needed to bring the measured effect to its halfway point.

The record behind these values is patent US12454529B2, “Piperazine cyclic ureas” (SIRONAX LTD., priority 2020, dated 2025).
